Assay [1] deals with T1, Testis-specific serine/threonine-protein kinase 1 (Homo sapiens) (UniProt Q9BXA7).
T1 sequence (whole entry): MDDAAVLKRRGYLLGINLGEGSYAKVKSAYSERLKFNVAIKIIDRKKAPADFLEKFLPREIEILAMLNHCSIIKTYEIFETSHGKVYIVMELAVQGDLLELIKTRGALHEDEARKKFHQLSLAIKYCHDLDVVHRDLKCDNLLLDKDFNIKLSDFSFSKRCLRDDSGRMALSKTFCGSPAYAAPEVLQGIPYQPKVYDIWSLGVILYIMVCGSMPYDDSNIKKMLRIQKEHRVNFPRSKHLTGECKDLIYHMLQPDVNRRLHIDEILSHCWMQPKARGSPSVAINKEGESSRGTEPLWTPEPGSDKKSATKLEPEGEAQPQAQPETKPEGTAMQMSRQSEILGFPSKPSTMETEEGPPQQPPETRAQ
In words: Inhibition of human full length TSSK1 expressed in baculovirus assessed as substrate phosphorylation using fluorescence-labelled peptides as substrate at 420 uM after 90 mins by microfluidic peptide phosphorylation assay.

Assay [2] concerns the target Protein kinase C gamma type (Homo sapiens) (UniProt P05129). In words: Inhibition of human truncated PKC gamma expressed in baculovirus assessed as substrate phosphorylation using fluorescence-labelled peptides as substrate at 420 uM after 90 mins by microfluidic peptide phosphorylation assay.
Assay [3] concerns the target T2, Inhibitor of nuclear factor kappa-B kinase subunit beta (Homo sapiens) (UniProt O14920).
T2 sequence (whole entry): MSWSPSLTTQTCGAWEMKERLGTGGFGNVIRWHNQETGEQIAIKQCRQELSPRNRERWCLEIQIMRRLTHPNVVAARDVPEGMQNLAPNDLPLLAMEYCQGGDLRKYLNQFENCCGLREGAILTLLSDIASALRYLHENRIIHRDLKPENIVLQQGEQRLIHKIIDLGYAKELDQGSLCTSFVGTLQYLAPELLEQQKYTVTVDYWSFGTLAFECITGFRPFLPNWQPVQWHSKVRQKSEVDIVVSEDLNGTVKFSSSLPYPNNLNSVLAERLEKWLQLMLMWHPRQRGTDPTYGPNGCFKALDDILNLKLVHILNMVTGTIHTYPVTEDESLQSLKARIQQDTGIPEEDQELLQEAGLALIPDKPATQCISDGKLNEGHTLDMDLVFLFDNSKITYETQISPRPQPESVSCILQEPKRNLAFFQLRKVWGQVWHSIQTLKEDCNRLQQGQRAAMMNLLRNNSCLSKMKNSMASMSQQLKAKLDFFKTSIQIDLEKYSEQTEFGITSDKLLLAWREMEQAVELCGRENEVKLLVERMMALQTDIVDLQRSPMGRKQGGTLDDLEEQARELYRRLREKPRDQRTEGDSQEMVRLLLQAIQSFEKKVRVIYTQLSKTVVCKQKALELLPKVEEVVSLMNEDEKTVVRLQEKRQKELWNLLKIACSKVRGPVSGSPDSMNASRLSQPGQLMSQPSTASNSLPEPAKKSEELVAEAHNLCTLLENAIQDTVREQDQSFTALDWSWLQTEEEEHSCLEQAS
The experiment in a line: Inhibition of human full length IKK beta expressed in baculovirus assessed as substrate phosphorylation using fluorescence-labelled peptides as substrate at 0.06 uM after 90 mins by microfluidic peptide phosphorylation assay.

In assay [4] the target is Protein kinase C alpha type (Homo sapiens) (UniProt P17252). In words: Inhibition of human truncated PKC alpha expressed in baculovirus assessed as substrate phosphorylation using fluorescence-labelled peptides as substrate at 0.2 uM after 90 mins by microfluidic peptide phosphorylation assay.
Assay [5] deals with T3, Serine/threonine-protein kinase BRSK1 (Homo sapiens) (UniProt Q8TDC3).
T3 sequence (whole entry): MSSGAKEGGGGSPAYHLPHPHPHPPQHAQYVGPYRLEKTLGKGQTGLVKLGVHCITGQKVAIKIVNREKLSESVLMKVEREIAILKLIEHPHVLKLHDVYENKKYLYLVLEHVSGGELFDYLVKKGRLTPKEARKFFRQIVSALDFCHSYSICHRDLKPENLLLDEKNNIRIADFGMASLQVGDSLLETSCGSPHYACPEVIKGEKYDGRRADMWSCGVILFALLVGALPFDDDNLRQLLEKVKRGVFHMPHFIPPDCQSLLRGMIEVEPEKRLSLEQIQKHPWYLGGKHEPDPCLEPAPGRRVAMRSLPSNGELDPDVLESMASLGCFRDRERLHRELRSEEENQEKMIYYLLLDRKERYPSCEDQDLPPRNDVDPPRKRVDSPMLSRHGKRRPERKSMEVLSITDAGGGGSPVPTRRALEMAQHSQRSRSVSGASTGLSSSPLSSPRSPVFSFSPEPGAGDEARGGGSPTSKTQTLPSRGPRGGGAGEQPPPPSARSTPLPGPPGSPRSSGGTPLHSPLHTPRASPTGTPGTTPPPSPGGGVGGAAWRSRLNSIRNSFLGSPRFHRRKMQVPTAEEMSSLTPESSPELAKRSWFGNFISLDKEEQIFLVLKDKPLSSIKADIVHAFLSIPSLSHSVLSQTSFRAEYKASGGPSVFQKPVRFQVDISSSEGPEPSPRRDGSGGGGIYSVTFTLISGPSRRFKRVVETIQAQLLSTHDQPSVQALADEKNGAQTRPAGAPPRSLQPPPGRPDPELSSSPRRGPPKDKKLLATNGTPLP
The experiment in a line: Inhibition of human full length BRSK1 expressed in baculovirus assessed as substrate phosphorylation using fluorescence-labelled peptides as substrate at 0.2 uM after 90 mins by microfluidic peptide phosphorylation assay.

The target in assay [6] is Vascular endothelial growth factor receptor 2 (Homo sapiens) (UniProt P35968). The experiment in a line: Inhibition of human KDR cytoplasmic domain expressed in baculovirus assessed as substrate phosphorylation using fluorescence-labelled peptides as substrate at 2 uM after 90 mins by microfluidic peptide phosphorylation assay.
Sequence of Vascular endothelial growth factor receptor 2 (Homo sapiens) (P35968 whole entry, the tested form may be a part): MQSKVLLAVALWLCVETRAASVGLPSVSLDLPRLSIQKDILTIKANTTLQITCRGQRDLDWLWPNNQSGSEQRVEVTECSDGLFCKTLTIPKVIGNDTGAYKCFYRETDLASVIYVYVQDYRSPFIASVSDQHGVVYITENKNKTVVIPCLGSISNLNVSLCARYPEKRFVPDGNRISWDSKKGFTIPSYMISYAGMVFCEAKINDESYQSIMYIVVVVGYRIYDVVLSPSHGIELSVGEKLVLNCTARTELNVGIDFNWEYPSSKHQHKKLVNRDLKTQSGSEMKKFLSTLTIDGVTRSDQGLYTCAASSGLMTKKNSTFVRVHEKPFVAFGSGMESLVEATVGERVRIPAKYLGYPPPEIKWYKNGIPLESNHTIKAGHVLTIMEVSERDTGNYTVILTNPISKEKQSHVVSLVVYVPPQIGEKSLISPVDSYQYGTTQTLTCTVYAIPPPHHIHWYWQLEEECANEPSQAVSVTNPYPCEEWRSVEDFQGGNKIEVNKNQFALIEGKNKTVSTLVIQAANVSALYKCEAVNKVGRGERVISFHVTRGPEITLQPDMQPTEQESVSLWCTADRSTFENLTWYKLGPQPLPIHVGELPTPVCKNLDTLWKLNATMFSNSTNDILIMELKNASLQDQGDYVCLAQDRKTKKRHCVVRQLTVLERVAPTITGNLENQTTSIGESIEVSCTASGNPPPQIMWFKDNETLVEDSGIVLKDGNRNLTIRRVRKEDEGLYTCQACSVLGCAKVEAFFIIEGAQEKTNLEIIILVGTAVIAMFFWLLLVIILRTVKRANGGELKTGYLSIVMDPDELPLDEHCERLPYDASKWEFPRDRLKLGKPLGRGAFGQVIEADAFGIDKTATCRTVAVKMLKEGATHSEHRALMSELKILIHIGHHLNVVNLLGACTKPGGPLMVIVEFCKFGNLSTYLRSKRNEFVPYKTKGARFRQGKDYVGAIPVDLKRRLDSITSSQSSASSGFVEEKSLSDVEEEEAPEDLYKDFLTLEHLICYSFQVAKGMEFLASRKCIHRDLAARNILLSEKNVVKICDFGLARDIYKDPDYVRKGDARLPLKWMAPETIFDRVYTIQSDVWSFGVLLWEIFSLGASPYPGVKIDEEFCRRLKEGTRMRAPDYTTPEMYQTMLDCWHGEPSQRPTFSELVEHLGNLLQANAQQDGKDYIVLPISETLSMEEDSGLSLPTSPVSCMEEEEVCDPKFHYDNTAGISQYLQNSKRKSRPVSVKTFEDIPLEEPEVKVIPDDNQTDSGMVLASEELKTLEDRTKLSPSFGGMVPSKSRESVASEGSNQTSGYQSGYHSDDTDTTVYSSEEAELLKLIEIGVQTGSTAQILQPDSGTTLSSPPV
Assay [7] deals with T4, Aurora kinase C (Homo sapiens) (UniProt Q9UQB9).
T4 sequence (whole entry): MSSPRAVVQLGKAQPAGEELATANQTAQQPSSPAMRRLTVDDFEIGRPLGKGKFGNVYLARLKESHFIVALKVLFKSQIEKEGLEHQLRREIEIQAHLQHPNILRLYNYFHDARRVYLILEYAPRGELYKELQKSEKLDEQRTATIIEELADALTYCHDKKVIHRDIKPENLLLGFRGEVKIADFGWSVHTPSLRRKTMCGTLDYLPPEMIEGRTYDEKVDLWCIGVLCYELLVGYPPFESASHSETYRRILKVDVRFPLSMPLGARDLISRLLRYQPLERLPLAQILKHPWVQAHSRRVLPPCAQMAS
In words: Inhibition of human full length AurC expressed in baculovirus assessed as substrate phosphorylation using fluorescence-labelled peptides as substrate at 1000 uM after 90 mins by microfluidic peptide phosphorylation assay.

The term inhibition denotes the change of the read-out against control, counted positive when it falls.

Consider `c1nc(N2CCOCC2)c2nc[nH]c2n1`, for which the inhibition in assay [1] amounted to 71%; in assay [2] it was 66%.
Turning to `NC1(Cc2ccc(Cl)cc2)CCN(c2ncnc3[nH]ccc23)CC1`, the inhibition in assay [3] amounted to 2%.
Take `Clc1ccc(C2(c3ccc(-c4ncnc5[nH]cnc45)cc3)CCNCC2)cc1`: the inhibition is 77.5% in assay [4] and 11% in assay [5].
Consider `NC1CCN(c2ncnc3[nH]ccc23)CC1`, for which the inhibition in assay [6] is 0%.
Take `c1cnc2[nH]ccc2c1`: the inhibition in assay [7] turned out to be 96%.

The record behind these values is ChEMBL document CHEMBL3132769, “Fragment growing to retain or alter the selectivity of anchored kinase hinge-binding fragments” (Medchemcomm, 2014).
